From US20030013764A1, “Use for a pyruvate dehydrogenase activator for the treatment of ischaemia in limbs” (priority 1995, published 2003)

Legend:
volunteers = conditions: cited from earlier work
[1] = tested on: contracting skeletal muscle of anaesthetised dogs; experiment: Muscle fatigue in contracting gracilis muscle of anaesthetised dogs; assay type: in vivo, Beagle dogs; conditions: following treatment with DCA (300 mg.kg−1 as sodium salt, infusion 45 min before contraction); 20 min stimulation at 3 Hz; fatigue=(peak tension—end tension)/peak tension
Protocol: The invention will now be further described by reference to the accompanying, non-limiting, experimental methods. In the following expermimental methods we have used the PDH kinase inhibitor dichloroacetate to determine if inhibitors of PDH kinase can reduce the rate of fatigue in contracting skeletal muscle of anaesthetised dogs which has blood flow limited to the same extent as patients with intermittent claudication. Suitable doses of DCA include these in the range 30 to 300 mg.kg^−1. In the experimental methods which follow DCA was administered (at a dose of 300 mg.kg^−1) as the sodium salt of dichloroacetic acid.
Female Alderley Park Beagle dogs (12-18 kg) were pre-medicated with morphine (10 mg, i.m.) 30 minutes prior to induction of anaesthesia with sodium pentobarbitone (45 mg kg-1 i.v., Sagatal.). […] Rectal temperature was constantly monitored and maintained (range 36.2° C.-38.6° C.) with a homeothermic heating blanket (Harvard Instruments, Edenbridge. Kent. UK).
The left external jugular vein was cannulated for continuous administration of anaesthetic (sodium pentobarbitone 12 mg/ml at a rate of5 -6 ml/hour) using an infusion pump (injectomat S. Fresenius. Villiers. France). […] All pressures were measured using strain gauge manometers (PDCR 75. Druck Ltd. Barendeecht. Netherlands) attached to d.c. bridle amplifiers (Lectromed. MT8P. St. Peter. Jersey). […]

[2] = tested on: patients with class III heart failure; conditions: human, in vivo; cited from earlier work
normal mice = conditions: cited from earlier work
angina patients = conditions: cited from earlier work
gracilis muscle = experiment: Muscle metabolites in gracilis muscle biopsies of anaesthetised dogs; assay type: in vivo, Beagle dogs; set-up: Lactate / Ac.carn. (acetyl carnitine) / Free carnitine: unit not given here; conditions: for Ac.carn. (acetyl carnitine) / Free carnitine / Lactate / PCr (phosphocreatine): DCA treated
Protocol: Animals were divided into DCA treated and vehicle (isotonic saline) treated groups. DCA or vehicle was given after completion of the surgery by a constant infusion. 45 minutes later the contraction was started. Muscle fatigue was measured in both normal and flow limited muscles. Arterial blood samples were taken from the brachial artery and venous blood samples were taken from each gracilis muscle at rest, during contraction and following recovery. The contraction period was 20 minutes of stimulation of 3 Hz. Blood samples (0.4 ml) being taken for blood gas analysis and analysed immediately. Parameters recorded were pH, pCO2. pO2. oxygen saturation and total Haemoglobin. Further samples (1.0 ml) were taken for analysis of lactate, glucose and non esterified fatty acid (NEFA) concentration.
Following resting blood samples and after drug/vehicle infusion a resting muscle biopsy (6 mm diameter Bergstrom needle. Stille, Sweden and 6 mm diameter Allendale needle, Edinburgh, Scotland), was taken from each muscle. After 20 minutes of stimulation the muscle was then freeze clamped, while still being stimulated, and a thin portion of muscle was excised and frozen in liquid nitrogen (The whole process took less than 6 seconds with the top layer of muscle being frozen within 1 second). The muscle samples were then stored in liquid nitrogen before a portion was freeze dried and analysed.
The muscle sample was divided into two portions, one for analysis of ATP, phosphocreatine (PCr), creatine (Cr) and intramuscular lactate (Harris. R et al., Scand. Journal Clin Lab Invest.. 33,109-120, 1974). The other portion of muscle was stored wet in liquid nitrogen. Briefly, the first portion of muscle was freeze dried, dissected free of visible connective tissue and blood and then powdered and was extracted in ice cold perchloric acid (0.5M) and neutralised with potassium bicarbonate (2.2M). Glycogen content was assayed using the method described by Harris et al. 1974 (see above).
Acetylcarnitine, free carnitine were assessed, in the freeze dried extract, by the method described by Cederblad et al; Anal. Biochem., 185, (1990), 274-278. PDH activity (rest & exercise, active and total) from a sample of wet tissue using the method of Constantin-Teodosiu D et al.. “A sensitive radioisotopic assay of pyruvate dehydrogenase complex in human muscle tissue”. Anal. Biochem.. Volume 198, p347-351. 1991. This method is also described by Dumitru Constantin-Teodosiu. Doctoral Thesis “Regulation of pyruvate dehydrgenase complex activity and acetyl group formation in skeletal muscle during exercise”. Stockholm 1992. from the Department of Clinical Chemistry, Karolinska Institute. Huddinge University Hospital. S-141 86 Huddinge Sweden.

[3] = angina patients undergoing catheterisation
[4] = Normal flow muscle after 20 min stimulation
[5] = Resricted flow muscle after 20 min stimulation

O=C(O)C(Cl)Cl [DCA, dichloroacetic acid]
reduction of lactate production (volunteers; volunteers during maximal and 50% maximal workload): up to 30% | increase in maximal work capacity (volunteers; volunteers): 10% | muscle fatigue [1]: 25.0% | effects in patients with class III heart failure [2]: Beneficial effects | increase in treadmill exercise duration (normal mice): 20% | oxidation of lactate (normal mice): increased | changes in heart rate or left ventricular inotropic state (LV dp/dtmax.) (angina patients; [3]): absence of changes | increase in stroke volume (angina patients; [3]): 13% | Myocardial efficiency (angina patients; angina patients, increased from 24%): 32% | Changes in Pcr (gracilis muscle; DCA treated versus control): reduced | Changes in lactate (gracilis muscle; DCA treated versus control): reduced | Ac.carn. (acetyl carnitine) (gracilis muscle; [4]): 9.6 ± 3.2 | Free carnitine (gracilis muscle; [4]): 15.5 ± 2.5 | Lactate (gracilis muscle; [4]): 5.4 ± 1.6 | PCr (phosphocreatine) (gracilis muscle; [4]): 44.7 ± 3.2 | Ac.carn. (acetyl carnitine) (gracilis muscle; [5]): 16.9 ± 2.6 | Free carnitine (gracilis muscle; [5]): 9.6 ± 2.2 | Lactate (gracilis muscle; [5]): 18.1 ± 4.0 | PCr (phosphocreatine) (gracilis muscle; [5]): 38.9 ± 3.0 | Ac.carn. (acetyl carnitine) (gracilis muscle; Resting muscle): 19.6 ± 1.0 | Free carnitine (gracilis muscle; Resting muscle): 5.4 ± 1.6 | Lactate (gracilis muscle; Resting muscle): 5.7 ± 1.4 | PCr (phosphocreatine) (gracilis muscle; Resting muscle): 55.1 ± 2.5 | Acetyl group availability (gracilis muscle; at rest and during contraction (RF muscle), DCA treated group versus control): higher
